This is an account of results in ChEMBL document CHEMBL4373629, “Dual inhibitors of LSD1 and spermine oxidase” (Medchemcomm, 2019).

Structures are written as SMILES. pIC50: −log10 of the molar value. Activity calls are given as the source filed them. No cut-off for these calls is given here. Where only a bound is given, the exact number is not on record here.

In series [1] the target is T1, Spermine oxidase (Homo sapiens, UniProt Q9NWM0). In words: Inhibition of SMOX (unknown origin) assessed as decrease in spermidine formation using spermine as substrate treated with compound 2 mins prior to substrate addition followed by further incubation for 1 hr by HPLC analysis.
T1 sequence (Q9NWM0 whole entry): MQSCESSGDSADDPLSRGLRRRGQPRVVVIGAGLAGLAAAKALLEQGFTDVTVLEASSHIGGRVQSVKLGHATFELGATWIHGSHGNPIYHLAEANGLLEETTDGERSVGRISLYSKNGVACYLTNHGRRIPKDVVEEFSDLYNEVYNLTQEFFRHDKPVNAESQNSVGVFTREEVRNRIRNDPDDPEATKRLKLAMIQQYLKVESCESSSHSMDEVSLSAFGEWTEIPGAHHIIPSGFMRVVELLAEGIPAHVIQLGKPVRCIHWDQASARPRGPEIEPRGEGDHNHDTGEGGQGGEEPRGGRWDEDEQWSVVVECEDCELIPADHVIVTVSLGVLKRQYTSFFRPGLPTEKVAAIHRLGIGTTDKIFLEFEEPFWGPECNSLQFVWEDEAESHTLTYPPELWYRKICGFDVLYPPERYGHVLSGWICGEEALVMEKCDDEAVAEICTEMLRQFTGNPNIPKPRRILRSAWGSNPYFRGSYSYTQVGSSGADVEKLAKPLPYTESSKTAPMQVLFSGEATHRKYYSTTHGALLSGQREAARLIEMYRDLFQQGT
Series [2] concerns the target T1, Spermine oxidase. The series can be described thus: Inhibition of SMOX (unknown origin) assessed as decrease in spermidine formation using spermine as substrate at 10 uM treated with compound 2 mins prior to substrate addition followed by further incubation for 1 hr by HPLC analysis relative to control.
The target in series [3] is T2, MAOB (amine oxidase [flavin-containing] B) (Homo sapiens, UniProt P27338).
T2 sequence (P27338 whole entry): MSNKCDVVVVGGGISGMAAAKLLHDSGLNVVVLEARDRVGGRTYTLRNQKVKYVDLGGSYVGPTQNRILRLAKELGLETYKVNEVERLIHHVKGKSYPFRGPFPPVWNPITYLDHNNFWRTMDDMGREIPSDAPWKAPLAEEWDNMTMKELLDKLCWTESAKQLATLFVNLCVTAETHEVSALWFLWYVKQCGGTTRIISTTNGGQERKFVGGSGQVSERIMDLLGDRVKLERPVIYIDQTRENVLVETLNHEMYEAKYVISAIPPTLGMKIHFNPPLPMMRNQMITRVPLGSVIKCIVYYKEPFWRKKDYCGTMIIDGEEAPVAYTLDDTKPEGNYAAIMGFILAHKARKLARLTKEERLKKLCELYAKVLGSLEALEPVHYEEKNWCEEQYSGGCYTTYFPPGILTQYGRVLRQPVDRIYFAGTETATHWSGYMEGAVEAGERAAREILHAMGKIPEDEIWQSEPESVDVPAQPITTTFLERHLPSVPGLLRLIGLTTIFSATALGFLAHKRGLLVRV
In words: Inhibition of MAOB (unknown origin) using luminogenic substrate at 10 uM incubated for 1 hr by luminescence based assay relative to control. As to conditions: MAOB enzyme (unknown origin), probe luminogenic substrate.

The target in series [4] is T3, Amine oxidase [flavin-containing] A (Homo sapiens, UniProt P21397).
T3 sequence (P21397 whole entry): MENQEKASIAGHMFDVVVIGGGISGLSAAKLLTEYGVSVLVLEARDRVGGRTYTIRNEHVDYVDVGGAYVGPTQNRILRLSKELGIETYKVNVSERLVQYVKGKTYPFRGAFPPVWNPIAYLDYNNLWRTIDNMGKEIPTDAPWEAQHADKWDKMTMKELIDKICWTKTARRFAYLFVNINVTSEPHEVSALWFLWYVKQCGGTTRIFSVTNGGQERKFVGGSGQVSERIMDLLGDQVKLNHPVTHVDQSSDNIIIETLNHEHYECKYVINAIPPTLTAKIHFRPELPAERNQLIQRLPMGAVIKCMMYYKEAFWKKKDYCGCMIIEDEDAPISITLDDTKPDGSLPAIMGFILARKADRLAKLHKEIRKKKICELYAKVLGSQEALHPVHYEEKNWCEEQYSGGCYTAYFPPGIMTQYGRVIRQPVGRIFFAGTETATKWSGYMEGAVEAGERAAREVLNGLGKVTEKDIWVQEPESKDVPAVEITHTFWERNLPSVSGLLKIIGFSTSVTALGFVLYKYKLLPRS
In words: Inhibition of MAOA (unknown origin) using luminogenic substrate incubated for 1 hr by luminescence based assay.

For series [5], the target named is Peroxisomal N(1)-acetyl-spermine/spermidine oxidase (Homo sapiens, UniProt Q6QHF9). In words: Inhibition of PAOX (unknown origin) assessed as decrease in spermidine formation using N-acetylspermine as substrate treated with compound 2 mins prior to substrate addition followed by further incubation for 1 hr by HPLC analysis.
Chain of Peroxisomal N(1)-acetyl-spermine/spermidine oxidase (Q6QHF9 whole entry): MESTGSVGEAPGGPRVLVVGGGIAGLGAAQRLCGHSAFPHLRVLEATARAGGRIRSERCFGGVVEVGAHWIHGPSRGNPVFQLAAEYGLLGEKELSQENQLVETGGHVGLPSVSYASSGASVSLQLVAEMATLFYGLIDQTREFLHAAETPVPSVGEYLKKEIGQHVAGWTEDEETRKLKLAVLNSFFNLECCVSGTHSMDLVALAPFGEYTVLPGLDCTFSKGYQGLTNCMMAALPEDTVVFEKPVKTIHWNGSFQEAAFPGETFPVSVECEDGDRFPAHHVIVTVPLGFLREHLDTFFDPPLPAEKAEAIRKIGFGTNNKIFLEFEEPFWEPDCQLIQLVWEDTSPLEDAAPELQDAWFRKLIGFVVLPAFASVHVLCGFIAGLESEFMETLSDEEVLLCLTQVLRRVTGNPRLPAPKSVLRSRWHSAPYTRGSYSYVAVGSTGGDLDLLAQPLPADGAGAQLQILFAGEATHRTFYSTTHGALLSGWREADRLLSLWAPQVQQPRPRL
In series [6] the target is T4, MAOA (amine oxidase [flavin-containing] A) (Homo sapiens, UniProt P21397).
T4 sequence (P21397 whole entry): T3 sequence (P21397 whole entry)
The series can be described thus: Inhibition of MAOA (unknown origin) using luminogenic substrate at 10 uM incubated for 1 hr by luminescence based assay relative to control. The conditions noted are these: MAOA enzyme (unknown origin), probe luminogenic substrate.

Series [7] in a line: cells. The conditions noted are these: Homo sapiens, MIA PaCa-2, 72 h.
Description: Antiproliferative activity against human MiaPaCa cells assessed as reduction in cell growth incubated for 72 hrs by MTS assay
The test system of series [8] is BXPC-3. The series can be described thus: cells. As to conditions: Homo sapiens, BXPC-3, 72 h.
Description: Antiproliferative activity against human BxPC3 cells assessed as reduction in cell growth incubated for 72 hrs by MTS assay
Series [9] deals with BXPC-3. In words: Antiproliferative activity against human BxPC3 cells assessed as reduction in cell growth at 10 to 100 uM incubated for 72 hrs by MTS assay relative to control. It counts as functional.
Series [10] concerns the target T5, Amine oxidase [flavin-containing] B (Homo sapiens, UniProt P27338).
T5 sequence (P27338 whole entry): T2 sequence (P27338 whole entry)
In words: Inhibition of MAOB (unknown origin) using luminogenic substrate incubated for 1 hr by luminescence based assay.

The subject of series [11] is RAW264.7. The series can be described thus: Inhibition of reactive oxygen species formation in mouse RAW264.7 cells infected with Helicobacter pylori. It counts as functional, cell-based.
Series [12] deals with T1, Spermine oxidase. In words: Potency index, ratio of MDL72527 IC50 to compound IC50 for SMOX (unknown origin) using spermine as substrate treated with compound 2 mins prior to substrate addition followed by further incubation for 1 hr by HPLC analysis.
Series [13] concerns the target LSD1/CoREST complex (Homo sapiens, UniProt O60341). In words: Inhibition of recombinant LSD1/CoREST (unknown origin) incubated for 30 mins to 4 hrs by fluorescence based assay. It counts as protein-complex assay.

For the compound `Nc1n[nH]c(NCc2ccccc2Oc2ccc3ccccc3c2)n1`, the pIC50 in series [1] is < 3.70; in [4] it was 4.10; in [5], < 3.70. Further, the inhibition in series [2] amounted to 0%. The same compound returned an inhibition at 1 h, 10 µM in series [3] of 81.6%.
Consider `Nc1n[nH]c(NCc2ccccc2Oc2ccccc2)n1`, for which the pIC50 in [1] was < 3.70; in [4], 4.30; in series [5], < 3.70. Moreover, the inhibition in series [2] was determined as 0%. This compound came in with an inhibition at 1 h, 10 µM in [3] of 18.8%.
Take `N[C@@H]1C[C@H]1c1ccccc1.N[C@H]1C[C@@H]1c1ccccc1`: in [2], the inhibition came out at 0%.
For the compound `Cc1cc(C)cc(Oc2ccccc2CNc2nc(N)n[nH]2)c1`, the pIC50 in series [1] is < 3.70; in [4] it was 4.04; in series [5], < 3.70. For the same compound, the inhibition in series [2] came out at 0%. The compound further registered an inhibition at 1 h, 10 µM in series [3] of 83.4%.
Take `CSc1ccc(Oc2ccccc2CNc2nc(N)n[nH]2)cc1`: the pIC50 is < 3.70 in series [1], 4.42 in [4] and < 3.70 in series [5]. Moreover, the inhibition in series [2] was determined as 0%. In [3], this compound came in with an inhibition at 1 h, 10 µM of 31.7%.
Turning to `Nc1n[nH]c(NCc2ccccc2Oc2ccc(F)cc2)n1`, the pIC50 was < 3.70 in series [1], 4.05 in series [4] and < 3.70 in [5]. The inhibition in [2] was determined as 0%. This compound yielded an inhibition at 1 h, 10 µM in series [3] of 40.7%.
For the compound `Cc1cccc(Oc2ccccc2CNc2nc(N)n[nH]2)c1C`, the pIC50 in series [1], in [4] and in series [5] was < 3.70 in each case. The inhibition in series [2] was 0%. Further, the inhibition at 1 h, 10 µM in series [3] was determined as 68.6%; in series [6] it was 0%.
Regarding `Nc1ccn([C@@H]2O[C@H](CO)[C@@H](O)C2(F)F)c(=O)n1` [GEMCITABINE], the figures for the pIC50 in series [7] and in [8] were 5.73 and 5.24, respectively. The “inhibition (INH)” value in series [9] is listed as 30%.
As to `Nc1nnc(NCc2c(Cl)cccc2Oc2ccccc2)[nH]1`, the negative-log IC50 (pIC50) is 3.75 in series [1], < 3.70 in series [10], 5.58 in series [7] and < 3.70 in [4]. The inhibition in series [2] was 28%. The inhibition at 1 h, 10 µM in series [3] and in series [6] was 0% throughout. Moreover, in series [11], the inhibition entry is “Active”.
Turning to `Nc1n[nH]c(NCc2ccccc2Oc2ccc(-c3ccccc3)cc2)n1`, the negative-log IC50 (pIC50) in series [1] is 4.59; in [7] it was 3.70 to 4.52; in series [4], 4.30; in [5], < 3.70; in series [8], 4.21. For the same compound, the inhibition in series [2] was 25.7%. Further, the inhibition at 1 h, 10 µM in [3] is 26.4%. For the same compound, in series [12], the Ratio IC50 amounted to 3.5.
As to `Cc1ccc(C(C)C)c(Oc2ccccc2CNc2nc(N)n[nH]2)c1`, the figures for the pIC50 in series [1], in series [4] and in [5] were < 3.70, 4.26 and < 3.70, respectively. Moreover, the inhibition in series [2] turned out to be 13.9%. For the same compound, the inhibition at 1 h, 10 µM in series [3] turned out to be 49.7%.
Regarding `Nc1n[nH]c(NCc2c(Cl)cccc2Oc2cccc3ccccc23)n1`, the pIC50 in series [1] was 3.83; in series [13], 6.64 to 6.72; in series [10], < 3.70; in series [7], 3.70 to 4.52; in [4] it was < 3.70; in series [8], < 4.00. Further, in series [2], the inhibition worked out at 19%. The inhibition at 1 h, 10 µM was determined as 7.12% in series [3] and 0% in series [6].
Regarding `Nc1n[nH]c(NCc2ccccc2Oc2ccc(Br)cc2C(F)(F)F)n1`, the negative-log IC50 (pIC50) in [1] was 3.92; in [7], 3.70 to 4.52; in series [4], 5.52; in series [5], < 3.70; in series [8], < 4.00. Moreover, in series [2], the inhibition was 0%. This compound came in with an inhibition at 1 h, 10 µM in series [3] of 90.1%.
For the compound `Nc1n[nH]c(NCc2c(Cl)cccc2Oc2ccc3ccccc3c2)n1`, the pIC50 in series [1] was 3.79; in series [10], < 3.70; in series [4], < 3.70. Also, the inhibition in series [2] was determined as 23.6%. Also, the inhibition at 1 h, 10 µM in series [3] and in [6] was 0% in each case.
With `C=C=CCNCCCCNCC=C=C`, the negative logarithm of the IC50 (pIC50) is 4.05 in series [1], < 4.00 in series [13], < 3.70 in series [10] and < 3.70 in series [4]. Further, the inhibition in [2] was found to be 4.8%. Besides, the inhibition at 1 h, 10 µM in series [3] and in series [6] was 0% in each case.
As for `CC(C)(C)c1ccc(Oc2ccccc2CNc2nc(N)n[nH]2)cc1`, the results for the pIC50 in series [1], in series [4] and in series [5] were < 3.70, 4.21 and < 3.70, respectively. The inhibition in [2] amounted to 0%. Further, the inhibition at 1 h, 10 µM in [3] came out at 32.3%.
For the compound `COc1cc(OC)cc(Oc2ccccc2CNc2nc(N)n[nH]2)c1`, the negative-log IC50 (pIC50) in series [1], in [4] and in series [5] was < 3.70 in each case. In addition, the inhibition in series [2] amounted to 0%. In addition, the values for the inhibition at 1 h, 10 µM in series [3] and in series [6] were 17.1% and 0%, respectively.
